Test results published in US20250120989A1, “BRIDGED TRICYCLIC CARBAMOYLPYRIDONE COMPOUNDS AND USES THEREOF” (priority 2023, published 2025).
Read-outs that look alike come from different tables or passages of the source.

Columns and labels:
in vitro = conditions: human; for CC50 at 5 days: uninfected MT-4 cells
HIV-1 (IIIB) = assay: microbe, parasite or virus in culture; assay type: cell-based; conditions: read-out: MT4 EC50
[1] = Human immunodeficiency virus 1, MT4, 120 h, HIV-1 (IIIB) replication in MT-4 cells, 5 days, Cell Titer Glo

| SMILES | CC50 at 5 days (in vitro) [µM] | EC50 (HIV-1 (IIIB); [1]) [µM] | CC50 (in vitro) [µM] | EC50 (HIV-1 (IIIB); Human immunodeficiency virus 1, IIIB, MT4, 120 h) [µM] |
| --- | --- | --- | --- | --- |
| CC1=NO[C@@]2(CC[C@H](C)N3C[C@H]2n2cc(C(=O)NCc4ccc(F)cc4F)c(=O)c(OCOC(=O)O[C@@H](C)C[C@H](C)OP(=O)(O)O)c2C3=O)C1 [Compound 30, (((3′S,5S,7′R)-10′-((2,4-difluorobenzyl)carbamoyl)-3,3′-dimethyl-1′,11′-dioxo-1′,4′,5′,11′-tetrahydro-3′H,4H,7′H-spiro[isoxazole-5,6′-[2,7]methanopyrido[1,2-a][1,4]diazonin]-12′-yl)oxy)methyl ((2S,4S)-4-(phosphonooxy)pentan-2-yl) carbonate] | 10.3 | 0.00272 | – | – |
| CC1=NO[C@@]2(CC[C@H](C)N3C[C@H]2n2cc(C(=O)NCc4ccc(F)cc4F)c(=O)c(OCOC(=O)O[C@H](C)COP(=O)(O)O)c2C3=O)C1 [Compound 18, (((3′S,5S,7′R)-10′-((2,4-difluorobenzyl)carbamoyl)-3,3′-dimethyl-1′,11′-dioxo-1′,4′,5′,11′-tetrahydro-3′H,4H,7′H-spiro[isoxazole-5,6′-[2,7]methanopyrido[1,2-a][1,4]diazonin]-12′-yl)oxy)methyl ((R)-1-(phosphonooxy)propan-2-yl) carbonate] | 12.1 | 0.00227 | – | – |
| CC1=NO[C@@]2(CC[C@H](C)N3C[C@H]2n2cc(C(=O)NCc4ccc(F)cc4F)c(=O)c(OC(C)OC(=O)OCCOP(=O)(O)O)c2C3=O)C1 (stereo partly drawn) [Compound 5, 1-(((3′S,5S,7′R)-10′-((2,4-difluorobenzyl)carbamoyl)-3,3′-dimethyl-1′,11′-dioxo-1′,4′,5′,11′-tetrahydro-3′H,4H,7′H-spiro[isoxazole-5,6′-[2,7]methanopyrido[1,2-a][1,4]diazonin]-12′-yl)oxy)ethyl (2-(phosphonooxy)ethyl) carbonate] | 10.6 | 0.00196 | – | – |
| COC1=NO[C@@]2(CC[C@H](C)N3C[C@H]2n2cc(C(=O)NCc4ccc(F)cc4F)c(=O)c(OCOP(=O)(O)O)c2C3=O)C1 [Compound 1, (((3′S,5S,7′R)-10′-((2,4-difluorobenzyl)carbamoyl)-3-methoxy-3′-methyl-1′,11′-dioxo-1′,4′,5′,11′-tetrahydro-3′H,4H,7′H-spiro[isoxazole-5,6′-[2,7]methanopyrido[1,2-a][1,4]diazonin]-12′-yl)oxy)methyl dihydrogen phosphate] | 15.4 | 0.00177 | – | – |
| CC1=NO[C@@]2(CC[C@H](C)N3C[C@H]2n2cc(C(=O)NCc4ccc(F)cc4F)c(=O)c(OCOC(=O)CCCCOP(=O)(O)O)c2C3=O)C1 [Compound 20, (((3′S,5S,7′R)-10′-((2,4-difluorobenzyl)carbamoyl)-3,3′-dimethyl-1′,11′-dioxo-1′,4′,5′,11′-tetrahydro-3′H,4H,7′H-spiro[isoxazole-5,6′-[2,7]methanopyrido[1,2-a][1,4]diazonin]-12′-yl)oxy)methyl 5-(phosphonooxy)pentanoate] | 20.4 | 0.00237 | – | – |
| CC1=NO[C@@]2(CC[C@H](C)N3C[C@H]2n2cc(C(=O)NCc4ccc(F)cc4F)c(=O)c(OCOC(=O)C4(CCN(CC(=O)O)C(=O)OCOP(=O)(O)O)CC4)c2C3=O)C1 [Compound 44, N-(2-(1-(((((3′S,5S,7′R)-10′-((2,4-difluorobenzyl)carbamoyl)-3,3′-dimethyl-1′,11′-dioxo-1′,4′,5′,11′-tetrahydro-3′H,4H,7′H-spiro[isoxazole-5,6′-[2,7]methanopyrido[1,2-a][1,4]diazonin]-12′-yl)oxy)methoxy)carbonyl)cyclopropyl)ethyl)-N-(((phosphonooxy)methoxy)carbonyl)glycine] | 11.1 | 0.00141 | – | – |
| COC1=NO[C@@]2(CC[C@H](C)N3C[C@H]2n2cc(C(=O)NCc4ccc(F)cc4F)c(=O)c(OCOC(=O)OC[C@@H](C)COP(=O)(O)O)c2C3=O)C1 [Compound 71, (((3′S,5S,7′R)-10′-((2,4-difluorobenzyl)carbamoyl)-3-methoxy-3′-methyl-1′,11′-dioxo-1′,4′,5′,11′-tetrahydro-3′H,4H,7′H-spiro[isoxazole-5,6′-[2,7]methanopyrido[1,2-a][1,4]diazonin]-12′-yl)oxy)methyl ((R)-2-methyl-3-(phosphonooxy)propyl) carbonate] | 21.3 | 0.00504 | – | – |
| COC1=NO[C@@]2(CC[C@H](C)N3C[C@H]2n2cc(C(=O)NCc4ccc(F)cc4F)c(=O)c(OCOC(=O)OC[C@@H](C)OP(=O)(O)O)c2C3=O)C1 [Compound 53, (((3′S,5S,7′R)-10′-((2,4-difluorobenzyl)carbamoyl)-3-methoxy-3′-methyl-1′,11′-dioxo-1′,4′,5′,11′-tetrahydro-3′H,4H,7′H-spiro[isoxazole-5,6′-[2,7]methanopyrido[1,2-a][1,4]diazonin]-12′-yl)oxy)methyl ((R)-2-(phosphonooxy)propyl) carbonate] | 15.2 | 0.00196 | – | – |
| CC[C@H](OP(=O)(O)O)[C@H](C)OC(=O)OCOc1c2n(cc(C(=O)NCc3ccc(F)cc3F)c1=O)[C@@H]1CN(C2=O)[C@@H](C)CC[C@]12CC(C)=NO2 [Compound 72, (((3′S,5S,7′R)-10′-((2,4-difluorobenzyl)carbamoyl)-3,3′-dimethyl-1′,11′-dioxo-1′,4′,5′,11′-tetrahydro-3′H,4H,7′H-spiro[isoxazole-5,6′-[2,7]methanopyrido[1,2-a][1,4]diazonin]-12′-yl)oxy)methyl ((2S,3S)-3-(phosphonooxy)pentan-2-yl) carbonate] | 27.2 | – | – | – |
| CC[C@@H](OP(=O)(O)O)[C@H](C)OC(=O)OCOc1c2n(cc(C(=O)NCc3ccc(F)cc3F)c1=O)[C@@H]1CN(C2=O)[C@@H](C)CC[C@]12CC(C)=NO2 [Compound 73, (((3′S,5S,7′R)-10′-((2,4-difluorobenzyl)carbamoyl)-3,3′-dimethyl-1′,11′-dioxo-1′,4′,5′,11′-tetrahydro-3′H,4H,7′H-spiro[isoxazole-5,6′-[2,7]methanopyrido[1,2-a][1,4]diazonin]-12′-yl)oxy)methyl ((2S,3R)-3-(phosphonooxy)pentan-2-yl) carbonate] | 30.8 | – | – | – |
| CC1=NO[C@@]2(CC[C@H](C)N3C[C@H]2n2cc(C(=O)NCc4ccc(F)cc4F)c(=O)c(OC(=O)OCCOP(=O)(O)O)c2C3=O)C1 [Compound 6, (3′S,5S,7′R)-10′-((2,4-difluorobenzyl)carbamoyl)-3,3′-dimethyl-1′,11′-dioxo-1′,4′,5′,11′-tetrahydro-3′H,4H,7′H-spiro[isoxazole-5,6′-[2,7]methanopyrido[1,2-a][1,4]diazonin]-12′-yl (2-(phosphonooxy)ethyl) carbonate] | – | – | 15.2 | 0.00209 |
| CC1=NO[C@@]2(CC[C@H](C)N3C[C@H]2n2cc(C(=O)NCc4ccc(F)cc4F)c(=O)c(OCOC(=O)OC[C@@H](C)COP(=O)(O)O)c2C3=O)C1 [Compound 70, (((3′S,5S,7′R)-10′-((2,4-difluorobenzyl)carbamoyl)-3,3′-dimethyl-1′,11′-dioxo-1′,4′,5′,11′-tetrahydro-3′H,4H,7′H-spiro[isoxazole-5,6′-[2,7]methanopyrido[1,2-a][1,4]diazonin]-12′-yl)oxy)methyl ((R)-2-methyl-3-(phosphonooxy)propyl) carbonate] | 15.3 | 0.00286 | – | – |
| CC1=NO[C@@]2(CC[C@H](C)N3C[C@H]2n2cc(C(=O)NCc4ccc(F)cc4F)c(=O)c(OCOC(=O)OCCN(C)C)c2C3=O)C1 [Compound 14, (((3′S,5S,7′R)-10′-((2,4-difluorobenzyl)carbamoyl)-3,3′-dimethyl-1′,11′-dioxo-1′,4′,5′,11′-tetrahydro-3′H,4H,7′H-spiro[isoxazole-5,6′-[2,7]methanopyrido[1,2-a][1,4]diazonin]-12′-yl)oxy)methyl (2-(dimethylamino)ethyl) carbonate] | 17.1 | – | – | – |
| CC1=NO[C@@]2(CC[C@H](C)N3C[C@H]2n2cc(C(=O)NCc4ccc(F)cc4F)c(=O)c(OC(=O)C(C)(C)CCN(CC(=O)O)C(=O)OCOP(=O)(O)O)c2C3=O)C1 [Compound 2, N-(4-(((3′S,5S,7′R)-10′-((2,4-difluorobenzyl)carbamoyl)-3,3′-dimethyl-1′,11′-dioxo-1′,4′,5′,11′-tetrahydro-3′H,4H,7′H-spiro[isoxazole-5,6′-[2,7]methanopyrido[1,2-a][1,4]diazonin]-12′-yl)oxy)-3,3-dimethyl-4-oxobutyl)-N-(((phosphonooxy)methoxy)carbonyl)glycine] | 12.3 | 0.00137 | – | – |
| COC1=NO[C@@]2(CC[C@H](C)N3C[C@H]2n2cc(C(=O)NCc4ccc(F)cc4F)c(=O)c(OCOC(=O)OC[C@@H](OP(=O)(O)O)C(C)C)c2C3=O)C1 [Compound 82, (((3′S,5S,7′R)-10′-((2,4-difluorobenzyl)carbamoyl)-3-methoxy-3′-methyl-1′,11′-dioxo-1′,4′,5′,11′-tetrahydro-3′H,4H,7′H-spiro[isoxazole-5,6′-[2,7]methanopyrido[1,2-a][1,4]diazonin]-12′-yl)oxy)methyl ((S)-3-methyl-2-(phosphonooxy)butyl) carbonate] | 39.7 | – | – | – |
| CC1=NO[C@@]2(CC[C@H](C)N3C[C@H]2n2cc(C(=O)NCc4ccc(F)cc4F)c(=O)c(OCOC(=O)OC[C@H](OP(=O)(O)O)C(C)C)c2C3=O)C1 [Compound 80, (((3′S,5S,7′R)-10′-((2,4-difluorobenzyl)carbamoyl)-3,3′-dimethyl-1′,11′-dioxo-1′,4′,5′,11′-tetrahydro-3′H,4H,7′H-spiro[isoxazole-5,6′-[2,7]methanopyrido[1,2-a][1,4]diazonin]-12′-yl)oxy)methyl ((R)-3-methyl-2-(phosphonooxy)butyl) carbonate] | 27.2 | – | – | – |
| CC[C@H](OP(=O)(O)O)[C@@H](C)OC(=O)OCOc1c2n(cc(C(=O)NCc3ccc(F)cc3F)c1=O)[C@@H]1CN(C2=O)[C@@H](C)CC[C@]12CC(OC)=NO2 [Compound 79, (((3′S,5S,7′R)-10′-((2,4-difluorobenzyl)carbamoyl)-3-methoxy-3′-methyl-1′,11′-dioxo-1′,4′,5′,11′-tetrahydro-3′H,4H,7′H-spiro[isoxazole-5,6′-[2,7]methanopyrido[1,2-a][1,4]diazonin]-12′-yl)oxy)methyl ((2R,3S)-3-(phosphonooxy)pentan-2-yl) carbonate] | 45.7 | – | – | – |
